Results reported in patent US9822136B2, “Chemical inhibitors of sebocyte function” (priority 2016, dated 2017).
“Also recorded” adds a separate entry of the source.

Tests used:
cloned hTRPM8 channel = biological target: T1, cloned hTRPM8 channel (Homo sapiens, UniProt Q7Z2W7); experiment: TRPM8 activation, FLIPR calcium assay in CHO cells; assay type: cell-based; details: for Relative Potency to I-menthol: TRPM8 EC50 relative to I-menthol
T1 construct: host or cells: CHO cells
Protocol: The in vitro effects of test articles were first evaluated on cloned hTRPM8 channel. […] The test cells were Chinese Hamster Ovary (CHO) cells stably transfected with human TRPM8 cDNAs. […] Substances were evaluated at 8 concentrations (0.03 to 300 μM) with n=4 replicates per determination. For Fluorescence Imaging Plate Reader ([…]″) assay, cells were plated in 384-well black wall, flat clear-bottom microtiter plates (Type: BD Biocoat Poly-D-Lysine Multiwell Cell Culture Plate) at approximately 30,000 cells per well. Cells were incubated at 37° C. overnight to reach a near confluent monolayer appropriate for use in a fluorescence assay. The test procedure was to remove the growth media and to add 40 μL of HBPS containing Fluo-8 for 30 minutes at 37° C. 10 μL of test compound, vehicle, or control solutions in HBPS were then added to each well and read for 4 min using a Fluo-8 calcium kit and the […]″ instrument (Molecular Devices, Sunnyvale, California). […] J. Neurosci.
Concentration-response data were analysed via the FLIPR Control software that is supplied with the FLIPR System (MDS-AT) and fitted to a Hill equation of the following form: Response=Base+(Max−Base)/1+(xhalf/x)^rate, where: “Base” is the response at low concentrations of test compound; “Max” is the maximum response at high concentrations; “xhalf” is the EC50 (the concentration of test compound producing half-maximal activation); and “rate” is the Hill coefficient. Nonlinear least squares fits were made assuming a simple one-to-one binding model.

sebocytes [1] = experiment: 3H-thymidine incorporation into sebocytes; assay type: cell-based, human; details: for activity at 10 µM: Homo sapiens, 3 h, uptake into sebocytes, NS = not significant
Protocol: (§1) The activities of 1-7 and 1-8 on an immortalized sebocyte cell line were examined in the laboratory of Prof Im Myung using methods previously described [Im et al. Epigallocatechin-3-gallate suppresses IGF-I-induced lipogenesis and cytokine expression in SZ95 sebocytes. J. Invest. Dermatol. 132, 2700-8 (2012)]. Proliferation of the sebocytes was measured using the MTT assay, by examination of micrographs of the cells in culture, and ^3H-thymidine incorporation. The effects of the test agents on lipogenesis were further studied by Oil Red O staining and analysis of the lipid composition of the cells. Studies were also conducted on signaling pathways for lipogenesis [PPAR and SREBP-1, Trivedi et al. Peroxisome proliferator-activated receptors increase human sebum production. J. Invest. Dermatol. 126, 2002-9 (2006)].
(§2) 1-7 and 1-8 are sensory cooling agents on the skin and activators [agonists] of the TRPM8 ion channel protein. […] The indicators used for direct comparison were sebocyte viability measured in the MTT assay and then the ^3H-thymidine incorporation assay.

sebocytes [2] = experiment: Sebocyte viability, MTT assay; assay type: cell-based, human; details: for Activity relative to 1-8 in the MTT sebocyte assay: FIG. 4; for Sebocyte cell viability as % of controls (FIG. 4): at 0.10 μM; for Sebocyte cell viability as % of controls (FIG. 3): concentrations in mM, 1-8 at 1 mM
Protocol: as §1
The MTT assay is a colorimetric assay for cell viability. MTT [3-(4,5-dimethylthiazol-2-yl)-2-5-diphenyltetrazolium bromide], a yellow tetra-azole dye, is reduced to purple formazan in living cells by NADPH-dependent oxidoreductase enzymes. When the number of viable cells decreases the amount of enzymatic activity and purple color decreases and this can be measured with a spectrophotometer.
as §2

zygomatic/forehead skin = experiment: Cooling sensation after application to zygomatic/forehead skin; assay type: in vivo, human; details: for Sensory Quality / Duration / Onset: 20 mg/mL in distilled water; for Duration: offset minus onset; for Onset: time to reach 2 units of coolness; for Duration of localized cooling and refreshing sensations: forehead skin, 20 mg/mL, 0.08 to 0.15 mL
Protocol: When certain Dapa compounds are applied to the zygomatic and forehead skin, sensations of coolness/cold are felt and can be graded in intensity [Wei. 1-Di-isopropyl-phosphinoyl-alkanes as topical agents for the treatment of sensory discomfort. US 2015/0164924]. For example, one can rate the sensation as 0, 1, 2, or 3 with: 0 as no change; 1 as slight coolness, or cold; 2 as clear-cut signal of coolness or cold; and 3 as strong cooling or cold. The intervals for recording are 5 to 15 minutes, until at least two successive zeroes are obtained. The onset of drug action is taken as the time to reach 2 units of coolness intensity. The active compounds here, e.g, 1-7 produce cooling with 1 min after application. The duration of Dapa-compound action is defined as the offset time minus the onset time. The offset of drug action is defined here as the time when coolness intensity drops below 2, after previously surpassing 2 units.
Test compounds were applied to the skin of the forehead and zygomatic using cotton gauze (0.4 g, rectangular, 50 mm×60 mm; from CS-being, Daisan Cotton, Japan). The test compounds were used at a concentration of 20 mg/mL in distilled water. From the data shown above, it can be seen that, among these compounds, 1-7 and 1-8 evoked cool/cold on zygomatic/forehead skin.

sebocytes [3] = experiment: IGF-1 stimulated lipogenesis in sebocytes (Oil Red O, thin-layer and gas chromatography of lipids); assay type: cell-based, human
Protocol: as §1, with “132, 2700-8 (2012)].” left out, “Dermatol.” for “Dermatol. 126, 2002-9 (2006)].”
J. Invest. Dermatol. […] Oil Red 0 [Sudan Red 5B] is a diazo dye used for staining neutral triglycerides and lipids on cells.

[4] = tested on: forehead skin of human subjects; experiment: Sebum secretion of forehead skin (Sebumeter); assay type: in vivo; details: 20 mg/mL on forehead, FIG. 2
Protocol: Sebum is an oily substance secreted by the sebaceous gland. These glands, attached to hair follicles, are abundant on the face and scalp. Increased secretion of sebum, for example during teenage years, and associated with androgen stimulation is associated with acne. […] Sebum secretion was measured here using a Sebumeter®, a standardized instrument based on a mat tape brought into contact with the skin, and then grease spot photometry [CK Electronic, Cologne, Germany].
In nine human subjects the baseline secretion of sebum was 188±19 μg/cm^2. […] This pharmacological effect has not been previously observed with Dapa-compounds such as 1-7. This was a new and unexpected observation.

human sebocytes = experiment: Inhibition of sebocyte function in cultured human sebocytes (assay not specified); assay type: cell-based; details: for Inhibition of sebocyte function: 0.1mM
Protocol: as §1, §2

[5] = tested on: Peroxisome proliferator-activated receptors [PPAR]; experiment: Marker of sebum production in sebocytes: PPAR; assay type: cell-based, human
Protocol: as §1
(§3) There are intracellular biochemical receptors and markers of sebocyte activation and sebum production. Peroxisome proliferator-activated receptors [PPAR] agonists increase sebum production in isolated sebocytes [Trivedi et al. (2006)]. This class of receptors is reduced after 1-8. Similarly, the […] which is linked to lipogenesis in sebocytes, was reduced by 1-8. These effects were specific to the markers of sebum production, as cellular receptors such as TRPM8 and actin were not affected by 1-8.

[6] = tested on: sterol-response binding protein [SBEP-1]; experiment: Marker of sebum production in sebocytes: SREBP-1; assay type: cell-based, human
Protocol: as §1, §3

TRPM8 and actin = experiment: Non-sebum cellular markers in sebocytes; assay type: cell-based, human
From the text: as §3

T1 sequence (Q7Z2W7 whole entry): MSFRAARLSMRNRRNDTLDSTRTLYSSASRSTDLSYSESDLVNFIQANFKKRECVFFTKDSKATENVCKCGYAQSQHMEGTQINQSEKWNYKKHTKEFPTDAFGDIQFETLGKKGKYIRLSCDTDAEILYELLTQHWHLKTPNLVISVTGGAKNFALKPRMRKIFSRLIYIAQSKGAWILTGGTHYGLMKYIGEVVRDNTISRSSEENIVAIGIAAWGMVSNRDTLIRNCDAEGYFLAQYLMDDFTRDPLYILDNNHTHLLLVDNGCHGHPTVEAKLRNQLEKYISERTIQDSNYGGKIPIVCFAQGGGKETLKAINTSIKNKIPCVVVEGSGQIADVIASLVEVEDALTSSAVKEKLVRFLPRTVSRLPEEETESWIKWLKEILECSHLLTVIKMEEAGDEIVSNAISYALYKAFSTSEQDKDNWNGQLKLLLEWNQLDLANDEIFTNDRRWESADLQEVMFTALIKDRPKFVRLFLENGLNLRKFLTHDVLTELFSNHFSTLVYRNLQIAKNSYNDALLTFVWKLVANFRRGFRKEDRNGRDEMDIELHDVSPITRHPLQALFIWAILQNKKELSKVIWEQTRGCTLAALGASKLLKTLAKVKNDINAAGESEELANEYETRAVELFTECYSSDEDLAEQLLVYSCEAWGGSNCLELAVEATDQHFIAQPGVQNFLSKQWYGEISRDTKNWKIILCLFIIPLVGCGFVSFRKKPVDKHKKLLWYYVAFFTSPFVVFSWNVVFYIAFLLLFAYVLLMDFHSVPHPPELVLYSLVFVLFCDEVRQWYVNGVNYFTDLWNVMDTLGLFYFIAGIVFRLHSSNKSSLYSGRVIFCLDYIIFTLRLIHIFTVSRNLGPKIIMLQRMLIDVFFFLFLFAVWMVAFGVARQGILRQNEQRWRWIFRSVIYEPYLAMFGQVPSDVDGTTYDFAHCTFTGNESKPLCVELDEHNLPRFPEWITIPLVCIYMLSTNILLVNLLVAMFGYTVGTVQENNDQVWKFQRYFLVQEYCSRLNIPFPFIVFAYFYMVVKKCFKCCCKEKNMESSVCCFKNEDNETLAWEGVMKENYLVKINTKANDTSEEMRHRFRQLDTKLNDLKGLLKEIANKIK

SMILES | Relative Potency to I-menthol (cloned hTRPM8 channel) | activity at 10 µM (sebocytes [1]) | Sensory Quality (zygomatic/forehead skin) | Duration (zygomatic/forehead skin) | Onset (zygomatic/forehead skin) | further results
CCCCCCCCCCP(=O)(C(C)C)C(C)C [Code 1-10, 1-diisopropylphosphoryldecane] |  | ≥ 100% |  |  |  | Activity on TRPM8 (cloned hTRPM8 channel): low potency; Levels / production of squalene (thin layer chromatography, FIG. 5) (sebocytes [3]; IGF-1 stimulated sebocytes): lowers; Activity relative to 1-8 in the MTT sebocyte assay (sebocytes [2]): 10,000 x; Sebocyte cell viability as % of controls (FIG. 4) (sebocytes [2]): strongly inhibited
CCCCP(=O)(C(C)CC)C(C)CC (stereo not shown) [Code 2-4, 1-disec-butylphosphorylbutane] | 0.3 |  | cool | 0.3 h | ~1 min | 
CCCCCCCP(=O)(C(C)CC)C(C)CC (stereo not shown) [Code 2-7, 1-disec-butylphosphorylheptane] | 3.4 | ≥ 85% | cold | 2.4 h | ~2 min | Activity on sebocyte viability (structure-activity summary of Table 6) (sebocytes [2]): absence of activities
CCCCCCP(=O)(C(C)CC)C(C)CC (stereo not shown) [Code 2-6, 1-disec-butylphosphorylhexane] | 4.7 | ≥ 100% | cold | 1.5 h | ~2 min | Activity on sebocyte viability (structure-activity summary of Table 6) (sebocytes [2]): absence of activities
CCCCCP(=O)(C(C)CC)C(C)CC (stereo not shown) [Code 2-5, 1-disec-butylphosphorylpentane] | 2.2 | ≥ 98% | cool | 1.1 h | ~1 min | 
CCCCCCCCP(=O)(C(C)CC)C(C)CC (stereo not shown) [Code 2-8, 1-disec-butylphosphoryloctane] | 2.9 | ≥ 90% | cold | 5.6 h | 5 min | Activity on sebocyte viability (structure-activity summary of Table 6) (sebocytes [2]): more activity than 2-6 or 2-7
CC1=C(/C=C/C(C)=C/C=C/C(C)=C\C(=O)O)C(C)(C)CCC1 [cis-retinoic acid, reference compound] |  |  |  |  |  | IGF-1 increased lipids, gel staining (FIG. 5) (sebocytes [3]; IGF-1 stimulated sebocytes): inhibited
CCCCCP(=O)(C(C)C)C(C)C [Code 1-5, 1-diisopropylphosphorylpentane] | 0.7 |  | dynamic | 0.5 h | ~1 min | 
CCCCCCCCCCCCP(=O)(C(C)C)C(C)C [Code 1-12, 1-diisopropylphosphoryldodecane] |  | ~40% |  |  |  | Activity on TRPM8 (cloned hTRPM8 channel): low potency; also recorded: very low activity; Levels / production of squalene (thin layer chromatography, FIG. 5) (sebocytes [3]; IGF-1 stimulated sebocytes): effective; also recorded: lowers; Inhibition of 3H-thymidine incorporation into sebocytes (sebocytes [1]): clearly inhibited; Activity relative to 1-8 in the MTT sebocyte assay (sebocytes [2]): 10,000 x; Sebocyte cell viability as % of controls (FIG. 4) (sebocytes [2]): strongly inhibited; Concentration at which fully effective (human sebocytes; sebocytes in culture): 0.01 µM
CC1=C(/C=C/C(C)=C/C=C/C(C)=C/C(=O)O)C(C)(C)CCC1 [trans-retinoic acid, reference compound] |  |  |  |  |  | IGF-1 increased lipids, gel staining (FIG. 5) (sebocytes [3]; IGF-1 stimulated sebocytes): inhibited
CCCCCCP(=O)(C(C)C)C(C)C [Code 1-6, 1-diisopropylphosphorylhexane] | 1.6 |  | dynamic | 1.3 h | ~1 min | 

Further lines, with some results ahead:

Relative Potency to I-menthol (cloned hTRPM8 channel) | SMILES | activity at 10 µM (sebocytes [1]) | Sensory Quality (zygomatic/forehead skin) | Duration (zygomatic/forehead skin) | Onset (zygomatic/forehead skin) | further results
4.0 | CCCCCCCCCP(=O)(C(C)C)C(C)C [Code 1-9, 1-diisopropylphosphorylnonane] | ≥ 85% | cool | 2.0 h | ~2 min | Activity on sebocyte viability (structure-activity summary of Table 6) (sebocytes [2]): active
5.4 | CCCCCCCP(=O)(C(C)C)C(C)C [Code 1-7, 1-diisopropylphosphorylheptane] | ≥ 100% | dynamic-icy | 3.2 h | ~1 min | Sebum secretion after topical application [4]: significantly decreased; Sebocyte cell viability as % of controls (FIG. 3) (sebocytes [2]): did not inhibit; Inhibition of sebocyte function (human sebocytes): not seen; Onset of cooling after application (zygomatic/forehead skin): ≤ 1 min; Duration of localized cooling and refreshing sensations (zygomatic/forehead skin): several hours
5.4 | CCCCCCCCP(=O)(C(C)C)C(C)C [Code 1-8, 1-diisopropylphosphoryloctane] | ≥ 78% | cold-icy | 4.0 h | ~1 min | IGF-1 induced increase of lipids in cells (Oil Red O photomicrograph) (sebocytes [3]; IGF-1 50 ng/mL, 0.1mM): inhibited; Squalene and wax esters (thin-layer chromatography and gas-chromatography) (sebocytes [3]; IGF-1 stimulated sebocytes): selectively decreased; PPAR level [5]: reduced; SBEP-1 level [6]: reduced; Photomicrographs of sebocyte cultures (sebocytes [2]; 0.1mM): patchy empty spaces; Sebocyte cell viability as % of controls (FIG. 3) (sebocytes [2]): strongly inhibited; TRPM8 and actin levels (TRPM8 and actin): not affected; Inhibition of sebocyte function (human sebocytes): potent inhibitor; Duration of localized cooling and refreshing sensations (zygomatic/forehead skin): several hours
